Laboratory results as given in the kinase profiling compilation of Christmann-Franck et al. (2016).
Several values for one entry are separate records, joined by “and”; a condition that tells them apart may be missing. Identical values can stand only once.

Assays:
Experiment in all cases: radiometric filter-binding kinase assay, Kinase HotSpot
Conditions in all cases: compound 0.5 µM; ATP 10 µM
ULK2 (human) = ULK2 (human) (UniProt Q8IYT8)
PBK (human) = PBK (human) (UniProt Q96KB5)
EPHB4 (human) = EPHB4 (human) (UniProt P54760)
JAK2 JH1 JH2 (human) = JAK2 JH1 JH2 (human) (UniProt O60674)
Chain of JAK2 JH1 JH2 (human) (O60674 whole entry, looked up): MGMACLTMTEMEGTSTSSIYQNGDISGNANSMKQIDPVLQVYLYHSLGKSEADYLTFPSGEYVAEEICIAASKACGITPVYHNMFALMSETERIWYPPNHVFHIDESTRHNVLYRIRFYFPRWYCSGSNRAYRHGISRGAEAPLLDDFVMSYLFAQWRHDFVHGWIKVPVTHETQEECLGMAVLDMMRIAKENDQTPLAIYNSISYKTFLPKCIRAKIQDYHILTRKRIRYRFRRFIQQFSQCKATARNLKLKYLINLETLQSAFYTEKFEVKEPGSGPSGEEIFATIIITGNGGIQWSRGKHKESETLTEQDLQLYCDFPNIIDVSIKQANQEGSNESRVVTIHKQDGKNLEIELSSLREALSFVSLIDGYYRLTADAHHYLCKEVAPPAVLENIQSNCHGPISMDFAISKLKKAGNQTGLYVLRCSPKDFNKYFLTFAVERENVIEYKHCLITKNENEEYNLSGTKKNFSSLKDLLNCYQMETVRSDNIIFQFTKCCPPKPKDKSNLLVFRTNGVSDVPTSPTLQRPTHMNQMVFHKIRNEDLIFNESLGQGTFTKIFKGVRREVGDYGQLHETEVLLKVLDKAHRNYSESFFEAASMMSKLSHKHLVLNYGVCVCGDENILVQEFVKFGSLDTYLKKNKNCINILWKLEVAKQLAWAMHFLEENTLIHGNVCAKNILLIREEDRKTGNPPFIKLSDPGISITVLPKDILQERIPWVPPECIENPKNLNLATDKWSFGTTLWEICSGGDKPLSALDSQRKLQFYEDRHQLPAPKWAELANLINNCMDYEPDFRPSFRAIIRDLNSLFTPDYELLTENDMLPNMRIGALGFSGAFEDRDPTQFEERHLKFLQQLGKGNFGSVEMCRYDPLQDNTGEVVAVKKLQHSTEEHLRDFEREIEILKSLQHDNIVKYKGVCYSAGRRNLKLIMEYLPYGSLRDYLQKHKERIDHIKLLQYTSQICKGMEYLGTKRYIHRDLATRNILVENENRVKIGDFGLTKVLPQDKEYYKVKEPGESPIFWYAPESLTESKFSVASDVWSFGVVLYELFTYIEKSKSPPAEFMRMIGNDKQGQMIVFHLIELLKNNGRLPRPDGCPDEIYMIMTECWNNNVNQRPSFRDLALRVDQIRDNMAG

EPHA6 (human) = EPHA6 (human) (UniProt Q9UF33)
BRAF (human) = BRAF (human) (UniProt P15056)
Chain of BRAF (human) (P15056 whole entry, looked up): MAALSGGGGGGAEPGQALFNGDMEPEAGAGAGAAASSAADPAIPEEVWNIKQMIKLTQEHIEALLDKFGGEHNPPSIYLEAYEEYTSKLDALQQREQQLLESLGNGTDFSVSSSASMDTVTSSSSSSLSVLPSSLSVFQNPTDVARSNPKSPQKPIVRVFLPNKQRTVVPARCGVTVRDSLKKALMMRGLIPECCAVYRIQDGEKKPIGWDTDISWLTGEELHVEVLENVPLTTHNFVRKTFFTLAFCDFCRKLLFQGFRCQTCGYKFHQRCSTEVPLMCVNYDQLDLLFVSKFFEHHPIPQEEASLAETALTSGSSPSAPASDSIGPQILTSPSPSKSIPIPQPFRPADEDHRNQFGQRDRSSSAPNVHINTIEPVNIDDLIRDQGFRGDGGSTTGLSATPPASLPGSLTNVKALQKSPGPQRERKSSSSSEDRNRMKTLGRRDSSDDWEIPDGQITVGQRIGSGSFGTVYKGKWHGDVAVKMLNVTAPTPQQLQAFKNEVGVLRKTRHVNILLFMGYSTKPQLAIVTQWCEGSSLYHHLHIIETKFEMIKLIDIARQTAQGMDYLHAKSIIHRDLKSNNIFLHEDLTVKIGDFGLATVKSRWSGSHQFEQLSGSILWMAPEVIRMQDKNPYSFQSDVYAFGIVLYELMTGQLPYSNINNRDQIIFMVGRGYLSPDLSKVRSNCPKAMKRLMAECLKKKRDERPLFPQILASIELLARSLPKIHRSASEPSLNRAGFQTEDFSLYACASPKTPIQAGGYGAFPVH

NEK2 (human) = NEK2 (human) (UniProt P51955)
EPHB2 (human) = EPHB2 (human) (UniProt P29323)
CSNK1D (human) = CSNK1D (human) (UniProt P48730)
TLK2 (human) = TLK2 (human) (UniProt Q86UE8)
Chain of TLK2 (human) (Q86UE8 whole entry, looked up): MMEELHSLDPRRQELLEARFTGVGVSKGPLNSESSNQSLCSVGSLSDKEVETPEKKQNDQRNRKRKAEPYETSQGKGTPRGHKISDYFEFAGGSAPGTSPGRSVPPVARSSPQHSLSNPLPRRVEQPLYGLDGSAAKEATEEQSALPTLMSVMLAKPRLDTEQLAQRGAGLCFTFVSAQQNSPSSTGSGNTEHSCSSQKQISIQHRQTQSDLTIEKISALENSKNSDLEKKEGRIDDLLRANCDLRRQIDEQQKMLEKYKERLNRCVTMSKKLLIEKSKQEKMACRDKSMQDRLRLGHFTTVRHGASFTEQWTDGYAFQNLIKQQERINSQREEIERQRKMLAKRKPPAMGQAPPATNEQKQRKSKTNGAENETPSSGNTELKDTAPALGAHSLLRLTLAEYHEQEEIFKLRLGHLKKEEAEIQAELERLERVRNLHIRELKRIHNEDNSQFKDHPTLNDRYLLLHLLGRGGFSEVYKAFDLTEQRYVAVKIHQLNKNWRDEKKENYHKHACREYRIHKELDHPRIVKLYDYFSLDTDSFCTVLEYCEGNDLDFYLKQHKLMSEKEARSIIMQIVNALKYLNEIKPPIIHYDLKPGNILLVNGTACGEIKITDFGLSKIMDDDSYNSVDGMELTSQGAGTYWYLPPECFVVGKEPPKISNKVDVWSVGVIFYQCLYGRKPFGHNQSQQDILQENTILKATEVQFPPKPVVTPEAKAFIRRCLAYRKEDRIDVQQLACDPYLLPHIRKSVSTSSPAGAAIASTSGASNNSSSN

MAP4K2 (human) = MAP4K2 (human) (UniProt Q12851)
BMX (human) = BMX (human) (UniProt P51813)
CHEK2 (human) = CHEK2 (human) (UniProt O96017)
MST1R (human) = MST1R (human) (UniProt Q04912)
PRKG1 (human) = PRKG1 (human) (UniProt Q13976)
Chain of PRKG1 (human) (Q13976 whole entry, looked up): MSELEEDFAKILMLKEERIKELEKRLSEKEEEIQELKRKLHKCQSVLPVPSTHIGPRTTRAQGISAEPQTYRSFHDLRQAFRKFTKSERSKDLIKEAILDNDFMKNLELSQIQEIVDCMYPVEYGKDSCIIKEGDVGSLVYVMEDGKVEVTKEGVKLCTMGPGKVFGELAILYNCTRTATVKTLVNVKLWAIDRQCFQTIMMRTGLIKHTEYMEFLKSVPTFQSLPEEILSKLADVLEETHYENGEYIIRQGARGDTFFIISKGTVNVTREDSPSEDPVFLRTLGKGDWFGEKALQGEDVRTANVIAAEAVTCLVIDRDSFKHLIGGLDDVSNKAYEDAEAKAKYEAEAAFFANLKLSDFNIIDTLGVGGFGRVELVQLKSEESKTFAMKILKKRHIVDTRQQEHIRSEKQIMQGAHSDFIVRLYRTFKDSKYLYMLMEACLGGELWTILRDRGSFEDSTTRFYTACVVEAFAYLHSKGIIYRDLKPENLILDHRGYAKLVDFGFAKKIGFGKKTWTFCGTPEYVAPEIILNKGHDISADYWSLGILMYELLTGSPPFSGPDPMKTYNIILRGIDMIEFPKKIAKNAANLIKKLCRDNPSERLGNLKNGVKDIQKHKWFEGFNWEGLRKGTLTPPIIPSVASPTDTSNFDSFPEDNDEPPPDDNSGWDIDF

CDK4 CCND1 (human) = CDK4 CCND1 (human) (UniProt P24385+P11802)
IGF1R (human) = IGF1R (human) (UniProt P08069)
PRKACG (human) = PRKACG (human) (UniProt P22612)
[1] = target: JAK1 JH1 catalytic (human) (UniProt P23458)
MYO3B (human) = MYO3B (human) (UniProt Q8WXR4)
PAK1 (human) = PAK1 (human) (UniProt Q13153)
CHUK (human) = CHUK (human) (UniProt O15111)
GSG2 (human) = GSG2 (human) (UniProt Q8TF76)
ULK3 (human) = ULK3 (human) (UniProt Q6PHR2)
PRKG2 (human) = PRKG2 (human) (UniProt Q13237)
Chain of PRKG2 (human) (Q13237 whole entry, looked up): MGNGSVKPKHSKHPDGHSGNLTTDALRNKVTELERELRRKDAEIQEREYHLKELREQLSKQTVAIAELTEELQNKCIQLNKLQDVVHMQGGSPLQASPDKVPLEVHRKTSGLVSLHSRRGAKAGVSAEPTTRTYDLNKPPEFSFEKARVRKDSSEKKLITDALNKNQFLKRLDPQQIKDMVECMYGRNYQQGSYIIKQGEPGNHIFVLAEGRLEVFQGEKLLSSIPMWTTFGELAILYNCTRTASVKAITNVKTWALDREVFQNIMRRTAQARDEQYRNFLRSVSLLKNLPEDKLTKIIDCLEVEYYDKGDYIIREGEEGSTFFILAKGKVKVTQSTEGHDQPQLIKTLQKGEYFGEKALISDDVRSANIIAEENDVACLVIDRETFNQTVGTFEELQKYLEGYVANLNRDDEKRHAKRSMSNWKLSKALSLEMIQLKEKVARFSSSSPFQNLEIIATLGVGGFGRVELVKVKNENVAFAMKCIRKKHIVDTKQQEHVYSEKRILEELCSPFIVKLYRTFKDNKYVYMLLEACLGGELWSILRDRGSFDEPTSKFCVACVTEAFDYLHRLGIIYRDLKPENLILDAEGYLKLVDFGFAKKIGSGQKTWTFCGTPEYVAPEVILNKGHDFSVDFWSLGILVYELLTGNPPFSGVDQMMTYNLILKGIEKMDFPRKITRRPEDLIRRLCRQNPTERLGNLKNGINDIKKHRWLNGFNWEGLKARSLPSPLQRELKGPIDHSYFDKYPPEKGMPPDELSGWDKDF

ABL2 (human) = ABL2 (human) (UniProt P42684)
PRKCI (human) = PRKCI (human) (UniProt P41743)
STK38 (human) = STK38 (human) (UniProt Q15208)
TEK (human) = TEK (human) (UniProt Q02763)
CAMKK2 (human) = CAMKK2 (human) (UniProt Q96RR4)
TEC (human) = TEC (human) (UniProt P42680)
CLK1 (human) = CLK1 (human) (UniProt P49759)
Chain of CLK1 (human) (P49759 whole entry, looked up): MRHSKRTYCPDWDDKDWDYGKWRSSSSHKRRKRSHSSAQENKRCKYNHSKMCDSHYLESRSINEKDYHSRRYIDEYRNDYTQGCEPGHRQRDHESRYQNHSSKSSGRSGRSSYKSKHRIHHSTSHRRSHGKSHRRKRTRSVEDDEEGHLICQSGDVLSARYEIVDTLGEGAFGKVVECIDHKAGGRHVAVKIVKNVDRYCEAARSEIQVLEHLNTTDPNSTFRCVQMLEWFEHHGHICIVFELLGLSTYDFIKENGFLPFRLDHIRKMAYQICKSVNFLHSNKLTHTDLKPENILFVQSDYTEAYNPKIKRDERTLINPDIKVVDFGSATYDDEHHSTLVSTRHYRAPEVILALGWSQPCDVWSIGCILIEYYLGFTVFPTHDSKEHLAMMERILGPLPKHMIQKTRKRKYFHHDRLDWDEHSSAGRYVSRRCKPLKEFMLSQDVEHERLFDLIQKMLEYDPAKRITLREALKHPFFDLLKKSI

PRKX (human) = PRKX (human) (UniProt P51817)
PRKCE (human) = PRKCE (human) (UniProt Q02156)
CSF1R (human) = CSF1R (human) (UniProt P07333)
MARK4 (human) = MARK4 (human) (UniProt Q96L34)
MAPK11 (human) = MAPK11 (human) (UniProt Q15759)
DYRK1A (human) = DYRK1A (human) (UniProt Q13627)
MAP3K3 (human) = MAP3K3 (human) (UniProt Q99759)
AXL (human) = AXL (human) (UniProt P30530)
DYRK2 (human) = DYRK2 (human) (UniProt Q92630)
OXSR1 (human) = OXSR1 (human) (UniProt O95747)

Chain of PBK (human) (Q96KB5 whole entry, looked up): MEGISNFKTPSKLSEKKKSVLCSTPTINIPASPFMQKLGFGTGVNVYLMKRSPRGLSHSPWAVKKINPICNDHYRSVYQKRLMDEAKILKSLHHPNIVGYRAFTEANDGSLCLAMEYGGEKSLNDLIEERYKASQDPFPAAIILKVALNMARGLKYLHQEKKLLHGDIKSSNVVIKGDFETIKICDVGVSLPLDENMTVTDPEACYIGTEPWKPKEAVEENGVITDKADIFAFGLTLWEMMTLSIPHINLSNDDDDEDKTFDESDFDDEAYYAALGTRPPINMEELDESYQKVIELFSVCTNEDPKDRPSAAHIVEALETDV

Structure (SMILES): O=C1Cc2c([nH]c3ccc(Br)cc23)-c2ccccc2N1
- residual activity (ULK2 (human)): 90.1%
- residual activity (PBK (human)): 99.3%
- residual activity (EPHB4 (human)): 100%
- residual activity (JAK2 JH1 JH2 (human)): 102%
- residual activity (EPHA6 (human)): 93.7%
- residual activity (BRAF (human)): 97.7%
- residual activity (NEK2 (human)): 87.1%
- residual activity (EPHB2 (human)): 95.5%
- residual activity (CSNK1D (human)): 104%
- residual activity (TLK2 (human)): 99.4%
- residual activity (MAP4K2 (human)): 20.1%
- residual activity (BMX (human)): 99.6%
- residual activity (CHEK2 (human)): 59%
- residual activity (MST1R (human)): 93.6%
- residual activity (PRKG1 (human)): 93% and 95.9%
- residual activity (CDK4 CCND1 (human)): 84%
- residual activity (IGF1R (human)): 103%
- residual activity (PRKACG (human)): 105%
- residual activity [1]: 102%
- residual activity (MYO3B (human)): 97.4%
- residual activity (PAK1 (human)): 85%
- residual activity (CHUK (human)): 98.6%
- residual activity (GSG2 (human)): 89.1%
- residual activity (ULK3 (human)): 83.2%
- residual activity (PRKG2 (human)): 101%
- residual activity (ABL2 (human)): 84.9%
- residual activity (PRKCI (human)): 89.1%
- residual activity (STK38 (human)): 98.6%
- residual activity (TEK (human)): 106%
- residual activity (CAMKK2 (human)): 77.8%
- residual activity (TEC (human)): 96.4%
- residual activity (CLK1 (human)): 96.7%
- residual activity (PRKX (human)): 100%
- residual activity (PRKCE (human)): 96.9%
- residual activity (CSF1R (human)): 92.6%
- residual activity (MARK4 (human)): 60.2%
- residual activity (MAPK11 (human)): 104%
- residual activity (DYRK1A (human)): 98.8%
- residual activity (MAP3K3 (human)): 93.2%
- residual activity (AXL (human)): 101%
- residual activity (DYRK2 (human)): 107%
- residual activity (OXSR1 (human)): 107%
